Patent US10597388B2, “Pyridazinone herbicides” (FMC CORPORATION, priority 2014, dated 2020)

Legend:
Assay in all cases: Test D controlled growth environment herbicide test, pre- and postemergence
Format in all cases: in vivo
[1] = test system: barley, spring (spring barley, Hordeum vulgare)
Outline: (§1)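 Rating is visual, 0–100 scale (100 = complete control), made against untreated plants 14–21 d after treatment in controlled growth conditions. Postemergence sprays went onto 1- to 4-leaf plants in peat medium; preemergence sprays onto silt loam after sowing; formulation included a surfactant.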

[2] = test system: bromegrass, downy (downy bromegrass, Bromus tectorum)
Outline: as §1

[3] = test system: chamomile (scentless chamomile, Matricaria inodora)
Outline: as §1

[4] = test system: deadnettle (henbit deadnettle, Lamium amplexicaule)
Outline: as §1

[5] = test system: field violet (Viola arvensis)
Outline: as §1

[6] = test system: lambsquarters (Chenopodium album)
Outline: as §1

[7] = test system: mustard, wild (wild mustard, Sinapis arvensis)
Outline: as §1

[8] = test system: oat, wild (wild oat, Avena fatua)
Outline: as §1

[9] = test system: oilseed rape (Brassica napus)
Outline: as §1

[10] = test system: radish, wild (wild radish, Raphanus raphanistrum)
Outline: as §1

[11] = test system: speedwell (bird's-eye speedwell, Veronica persica)
Outline: as §1

[12] = test system: wheat, spring (spring wheat, Triticum aestivum)
Outline: as §1

[13] = test system: windgrass (Apera spica-venti)
Outline: as §1

[14] = Postemergence, 31 g ai/ha, scale 0 to 100 (0 no effect, 100 complete control)
[15] = Postemergence, 125 g ai/ha, visual rating on scale 0 (no effect) to 100 (complete control), 14 to 21 d
[16] = Postemergence, 250 g ai/ha, scale 0 to 100 (0 no effect, 100 complete control)
[17] = Preemergence, 62 g ai/ha, scale 0 to 100 (0 no effect, 100 complete control)
[18] = Preemergence, 125 g ai/ha, scale 0 to 100 (0 no effect, 100 complete control)
[19] = Preemergence, 250 g ai/ha, scale 0 to 100 (0 no effect, 100 complete control)
[20] = postemergence, 62 g ai/ha, scale 0 to 100, 0 no effect, 100 complete control

CC(=O)Oc1c(Br)nn(C)c(=O)c1-c1c(C)ccc2ccccc12 [Compound 129]
Barley, Spring plant response rating [1, 14]: 20
Plant response rating, Barley, Spring [1, 15]: 30
Plant response rating, Barley, Spring [1, 16]: 30
Plant response rating (scale of 0 to 100), Barley, Spring ([1]; Preemergence, 31 g ai/ha): 0
Plant response rating, Barley, Spring [1, 17]: 0
Plant response rating, Barley, Spring [1, 18]: 0
Plant response rating, Barley, Spring [1, 19]: 20
Plant response rating, Barley, Spring [1, 20]: 25
Bromegrass, Downy plant response rating [2, 14]: 25
Plant response rating, Bromegrass, Downy [2, 15]: 65
Plant response rating, Bromegrass, Downy [2, 16]: 80
Plant response rating (scale of 0 to 100), Bromegrass, Downy ([2]; Preemergence, 31 g ai/ha): 15
Plant response rating, Bromegrass, Downy [2, 17]: 15
Plant response rating, Bromegrass, Downy [2, 18]: 65
Plant response rating, Bromegrass, Downy [2, 19]: 80
Plant response rating, Bromegrass, Downy [2, 20]: 40
Chamomile plant response rating [3, 14]: 100
Plant response rating, Chamomile [3, 15]: 100
Plant response rating, Chamomile [3, 16]: 100
Plant response rating (scale of 0 to 100), Chamomile ([3]; Preemergence, 31 g ai/ha): 100
Plant response rating (scale of 0 to 100), Chamomile ([3]; Preemergence, 62 g ai/ha): 100
Plant response rating, Chamomile [3, 18]: 100
Plant response rating, Chamomile [3, 19]: 100
Plant response rating, Chamomile [3, 20]: 98
Deadnettle plant response rating [4, 14]: 35
Plant response rating, Deadnettle [4, 15]: 70
Plant response rating, Deadnettle [4, 16]: 95
Plant response rating (scale of 0 to 100), Deadnettle ([4]; Preemergence, 31 g ai/ha): 60
Plant response rating (scale of 0 to 100), Deadnettle ([4]; Preemergence, 62 g ai/ha): 75
Plant response rating, Deadnettle [4, 18]: 75
Plant response rating, Deadnettle [4, 19]: 95
Plant response rating, Deadnettle [4, 20]: 40
Field Violet plant response rating [5, 14]: 65
Plant response rating, Field Violet [5, 15]: 70
Plant response rating, Field Violet [5, 16]: 75
Plant response rating (scale of 0 to 100), Field Violet ([5]; Preemergence, 31 g ai/ha): 85
Plant response rating (scale of 0 to 100), Field Violet ([5]; Preemergence, 62 g ai/ha): 85
Plant response rating, Field Violet [5, 18]: 85
Plant response rating, Field Violet [5, 19]: 100
Plant response rating, Field Violet [5, 20]: 70
Lambsquarters plant response rating [6, 14]: 75
Plant response rating, Lambsquarters [6, 15]: 95
Plant response rating, Lambsquarters [6, 16]: 100
Plant response rating (scale of 0 to 100), Lambsquarters ([6]; Preemergence, 31 g ai/ha): 100
Plant response rating (scale of 0 to 100), Lambsquarters ([6]; Preemergence, 62 g ai/ha): 75
Plant response rating, Lambsquarters [6, 18]: 100
Plant response rating, Lambsquarters [6, 19]: 100
Plant response rating, Lambsquarters [6, 20]: 90
Mustard, Wild plant response rating [7, 14]: 80
Plant response rating, Mustard, Wild [7, 15]: 98
Plant response rating, Mustard, Wild [7, 16]: 100
Plant response rating (scale of 0 to 100), Mustard, Wild ([7]; Preemergence, 31 g ai/ha): 75
Plant response rating (scale of 0 to 100), Mustard, Wild ([7]; Preemergence, 62 g ai/ha): 100
Plant response rating, Mustard, Wild [7, 18]: 100
Plant response rating, Mustard, Wild [7, 19]: 100
Plant response rating, Mustard, Wild [7, 20]: 80
Oat, Wild plant response rating [8, 14]: 90
Plant response rating, Oat, Wild [8, 15]: 95
Plant response rating, Oat, Wild [8, 16]: 100
Plant response rating (scale of 0 to 100), Oat, Wild ([8]; Preemergence, 31 g ai/ha): 75
Plant response rating (scale of 0 to 100), Oat, Wild ([8]; Preemergence, 62 g ai/ha): 75
Plant response rating, Oat, Wild [8, 18]: 90
Plant response rating, Oat, Wild [8, 19]: 100
Plant response rating, Oat, Wild [8, 20]: 90
Oilseed Rape plant response rating [9, 14]: 5
Plant response rating, Oilseed Rape [9, 15]: 15
Plant response rating, Oilseed Rape [9, 16]: 70
Plant response rating (scale of 0 to 100), Oilseed Rape ([9]; Preemergence, 31 g ai/ha): 0
Plant response rating (scale of 0 to 100), Oilseed Rape ([9]; Preemergence, 62 g ai/ha): 15
Plant response rating, Oilseed Rape [9, 18]: 55
Plant response rating, Oilseed Rape [9, 19]: 100
Plant response rating, Oilseed Rape [9, 20]: 5
Radish, Wild plant response rating [10, 14]: 60
Plant response rating, Radish, Wild [10, 15]: 80
Plant response rating, Radish, Wild [10, 16]: 98
Plant response rating (scale of 0 to 100), Radish, Wild ([10]; Preemergence, 31 g ai/ha): 80
Plant response rating (scale of 0 to 100), Radish, Wild ([10]; Preemergence, 62 g ai/ha): 100
Plant response rating, Radish, Wild [10, 18]: 100
Plant response rating, Radish, Wild [10, 19]: 100
Plant response rating, Radish, Wild [10, 20]: 75
Speedwell plant response rating [11, 14]: 35
Plant response rating, Speedwell [11, 15]: 65
Plant response rating, Speedwell [11, 16]: 75
Plant response rating (scale of 0 to 100), Speedwell ([11]; Preemergence, 31 g ai/ha): 90
Plant response rating (scale of 0 to 100), Speedwell ([11]; Preemergence, 62 g ai/ha): 100
Plant response rating, Speedwell [11, 18]: 100
Plant response rating, Speedwell [11, 19]: 100
Plant response rating, Speedwell [11, 20]: 60
Wheat, Spring plant response rating [12, 14]: 25
Plant response rating, Wheat, Spring [12, 15]: 50
Plant response rating, Wheat, Spring [12, 16]: 70
Plant response rating (scale of 0 to 100), Wheat, Spring ([12]; Preemergence, 31 g ai/ha): 25
Plant response rating (scale of 0 to 100), Wheat, Spring ([12]; Preemergence, 62 g ai/ha): 50
Plant response rating, Wheat, Spring [12, 18]: 60
Plant response rating, Wheat, Spring [12, 19]: 75
Plant response rating, Wheat, Spring [12, 20]: 35
Windgrass plant response rating [13, 14]: 20
Plant response rating, Windgrass [13, 15]: 55
Plant response rating, Windgrass [13, 16]: 90
Plant response rating (scale of 0 to 100), Windgrass ([13]; Preemergence, 31 g ai/ha): 35
Plant response rating (scale of 0 to 100), Windgrass ([13]; Preemergence, 62 g ai/ha): 45
Plant response rating, Windgrass [13, 18]: 75
Plant response rating, Windgrass [13, 19]: 80
Plant response rating, Windgrass [13, 20]: 35
